Measured values from paper PMC4559766 (Scientific Reports, 2015).
Read-outs that look alike come from different tables or passages of the source. Peptide text beside a SMILES is read from it.

Assays:
Du145 transplanted tumor [1] = assay: Subcutaneous Du145 transplanted tumor in nude mice; assay type: in vivo, BALB/c-nu/nu nude mice; details: tail vein once a day for 4 weeks
Procedure: Thirty male 4-week-old BALB/c-nu/nu nude mice (17–19 g), were divided into five groups. CK group (blank control) was the mice which were not inoculated Du145 cells, and the remaining four groups received inoculation of Du145 cells. 0.2 ml of Du145 cells suspension with the concentration of 1.5 × 10^7 cells/ml was injected subcutaneously into the right side of back of nude mice. […] The weights and volumes of tumors in different groups were measured once every four days, and tumor growth curves for each group were plotted.

Du145 transplanted tumor [2] = assay: Microvessel density of removed tumors (anti-CD31 immunohistochemistry, Weidner method); assay type: in vivo, BALB/c-nu/nu nude mice; details: tumors removed after 4 weeks of administration, anti-CD31, n = 6
Procedure: Four weeks after administration, the mice were executed, and the tumors of different groups were removed and fixed with 10% neutral formalin or 2.5% glutaraldehyde. The fixed tumor tissue slides were subjected to Hematoxylin-eosin (HE) staining, immunohistochemistry in which anti-CD31 antibody and biotin-labeled IgG were respectively used as the first and second antibody, and TEM analysis. The microvessel densitied (MVD) in different tumor tissues was calculated using the Weidner method.

[3] = Blood biochemical indexes of liver and kidney function in tumor-bearing nude mice; details: serum at end of 4 weeks of administration, n = 6
Procedure: (§1) The blood was collected and centrifuged at the end of administration for 4 weeks. The serum was placed into eppendorf (EP) tube and immediately sent to the First Affiliated Hospital of Jinan University where several tests closely related to liver/kidney function were performed, and the blood biochemical indexes AST, ALT, AST/ALT, ALB, GLB, ALB/GLB, DBILI, IBILI, TBILI, BUN and CREA were obtained.

[4] = mouse, in vivo
Procedure: (§2) Blood samples were collected by eye bleed from three mice at per time point prior to dosing and from 0.5 to 24 hours postdosing, and the plasma portion was analyzed by using an electrospray ionization, LC/MS/MS method described previously[48]. […] Tri (2-carboxyethyl) phosphine hydrochloride (TCEP) was used as a reducing agent to enhance peptide recovery and was added to all samples at a final concentration of 2 mM. After removing the plasma proteins through adding acetonitrile and centrifugation, the supernatant was transferred to another 96-well plate. Samples were analyzed by LC/MS/MS. Pharmacokinetic parameters were fitted to a two-compartment elimination model, and drug exposure (AUC), elimination half-life (t1⁄2), volume of distribution (Vd) and the clearance (CL) were calculated using WinNonlin Ver.

[5] = mouse, in vivo; remark: listed apart in the source
Procedure: as §1

in vivo = details: BALB/c, mouse, iv, 5 mg/kg
Procedure: as §2

HSA = molecular target: T1, HSA (Homo sapiens, UniProt P02768); assay: Phage ELISA of 7-mer peptides for serum albumin binding
T1 construct: purchased Sigma
Procedure: HSA or MSA were dissolved with 0.1 M NaHCO3 to obtain a solution at 100 μg/ml. The obtained solutions were loaded to each row of wells of enzyme-linked immunosorbent assay (ELISA) multiple-well plate, and the plates were blocked with 1% casein in NaHCO3. Each selected phage clone to be identified was subject to 4-fold serial dilution to allow 10^12 phage particles in the first well and 2.4 × 10^5 phage particles in the twelfth well. Each row of the diluted phages was transferred into the plate coated with HSA or MSA by using a mutichannel pipettor, and the plate was incubated at 25 °C for 1.5 hours. After the microtiter plate was repeatedly washed with TBST, bound phages were detected by incubation with Rabbit anti-M13 phage antibody and HRP-conjugated goat anti-rabbit IgG. ABTS/H2O2 substrate was used to measure the amount of HRP bound and monitor the absorbance at 405 nm.

T1 sequence (P02768 25-609): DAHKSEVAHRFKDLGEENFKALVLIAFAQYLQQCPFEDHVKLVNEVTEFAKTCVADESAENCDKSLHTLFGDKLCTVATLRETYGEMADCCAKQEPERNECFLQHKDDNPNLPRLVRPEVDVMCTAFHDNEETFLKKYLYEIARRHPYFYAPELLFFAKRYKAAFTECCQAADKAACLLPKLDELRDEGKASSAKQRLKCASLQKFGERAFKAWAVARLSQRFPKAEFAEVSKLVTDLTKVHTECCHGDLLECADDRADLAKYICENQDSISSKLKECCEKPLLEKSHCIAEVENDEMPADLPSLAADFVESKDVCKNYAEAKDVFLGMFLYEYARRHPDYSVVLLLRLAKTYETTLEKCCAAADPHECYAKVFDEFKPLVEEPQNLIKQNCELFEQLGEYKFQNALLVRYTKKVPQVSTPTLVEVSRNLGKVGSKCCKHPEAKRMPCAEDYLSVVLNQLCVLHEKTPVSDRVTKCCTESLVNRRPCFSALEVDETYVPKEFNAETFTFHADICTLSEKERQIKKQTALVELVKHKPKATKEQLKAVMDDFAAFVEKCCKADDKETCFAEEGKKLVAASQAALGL

In the case of C[C@]12CC[C@@H]3c4ccc(OC(=O)N(CCCl)CCCl)cc4CC[C@H]3[C@@H]1CC[C@@H]2O [Estramustine], the “body weight change of treated mice” value (Du145 transplanted tumor [1]; 40 nM RMP16, estramustine 60 mg/kg) is reported as “reduced obviously”, the tumor inhibition rate (Du145 transplanted tumor [1]; 0.1 ml of 40 nM RMP16 or P16, estramustine 60 mg/kg, by average tumor weight versus NaCl group, n = 6) is reported as 83.03% and the “microvessel density (MVD)” value (Du145 transplanted tumor [2]) is reported as 8.6 ± 0.83. For the same compound, the ALB [3] was 15.2 ± 0.6 g/L, the ALB/GLB [3] was 0.36 ± 0.02 and the ALT [3] was 81.5 ± 12.5 U/L. It also gave an AST [3] of 161 ± 18 U/L, an AST/ALT [3] of 1.99 ± 0.09 and a CREA [3] of 4 ± 0.3 µM. For the same compound, the DBILI [3] was 3.7 ± 0.4 µM, the GLB [3] was 42.1 ± 3.7 g/L and the IBILI [3] was 7.7 ± 0.2 µM. The TBILI [3] was 11.4 ± 0.2 µM.
CC[C@H](C)[C@H](NC(=O)[C@H](CCCNC(=N)N)NC(=O)[C@H](CO)NC(=O)[C@@H](NC(=O)[C@@H](NC(=O)[C@H](Cc1c[nH]cn1)NC(=O)[C@@H](NC(=O)[C@H](CC(C)C)NC(=O)[C@@H](N)CC(C)C)[C@@H](C)O)[C@@H](C)O)[C@@H](C)CC)C(=O)N[C@@H](C)C(=O)N[C@H](C(=O)N[C@@H](CO)C(=O)N[C@@H](Cc1ccc(O)cc1)C(=O)N[C@@H](CCC(N)=O)C(=O)N[C@H](C(=O)N[C@@H](CCCCN)C(=O)N[C@H](C(=O)N[C@@H](CC(N)=O)C(=O)N[C@@H](CC(C)C)C(=O)N[C@@H](CC(C)C)C(=O)O)C(C)C)[C@@H](C)O)C(C)C [P16] (H-LLTHTISRIAVSYQTKVNLL-OH) showed a half-life [4] of 5.77 min, an ALB [5] of 17.25 ± 1.35 g/L and an ALB/GLB [5] of 0.45 ± 0.02. It also gave an ALT [5] of 131.5 ± 24.5 U/L, an AST [5] of 188.5 ± 29.5 U/L and an AST/ALT [5] of 1.45 ± 0.05. It also gave a BUN [5] of 10.63 ± 0.35, a CREA [5] of 9.5 ± 0.5 µM and a DBILI [5] of 3.85 ± 0.25 µM. For the same compound, the GLB [5] was 41.75 ± 1.45 g/L, the IBILI [5] was 9.75 ± 0.45 µM and the TBILI [5] was 13.6 ± 0.2 µM. The AUC (in vivo) was 12300 ng·h/mL, the Vd (in vivo) was 0.0561 L/kg and the clearance (in vivo) was 6.75 mL/min/kg. The half-life (in vivo) was 5.76 min.
In the case of WQRPSSW, the “binding affinity to HSA compared with MSA” value (HSA; phage ELISA, plates coated with HSA or MSA) is reported as “slightly higher than that of mouse serum albumin” and the “HSA-binding affinity of phage-encoded 7-mer peptide” value (HSA; sandwich immunoassay (ELISA), 4-fold serial dilution from 10^12 phage particles, absorbance at 405 nm) is reported as “much higher HSA-binding affinity than HLYWQRP”.
